Molecular target: PDE4B (Homo sapiens, UniProt Q07343)
Experiment: Scintillation Proximity Assay (SPA) of PDE4B enzyme activity ([H3]-cAMP cleavage)
Type: biochemical
Settings: test substance 1 μM; one-hour incubation of [H3]-cAMP with PDE4B enzyme at 30° C.
How it was run: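 SPA read-out: [H3]-cAMP incubated with PDE4B in assay buffer for 1 h at 30 °C, with and without test compound at 1 μM. Reaction stopped by adding yttrium silicate beads that bind the [H3]-AMP product; after 45 min settling, scintillation counted. Value is % inhibition at 1 μM.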

PDE4B, sequence (Q07343 whole entry, species assumed): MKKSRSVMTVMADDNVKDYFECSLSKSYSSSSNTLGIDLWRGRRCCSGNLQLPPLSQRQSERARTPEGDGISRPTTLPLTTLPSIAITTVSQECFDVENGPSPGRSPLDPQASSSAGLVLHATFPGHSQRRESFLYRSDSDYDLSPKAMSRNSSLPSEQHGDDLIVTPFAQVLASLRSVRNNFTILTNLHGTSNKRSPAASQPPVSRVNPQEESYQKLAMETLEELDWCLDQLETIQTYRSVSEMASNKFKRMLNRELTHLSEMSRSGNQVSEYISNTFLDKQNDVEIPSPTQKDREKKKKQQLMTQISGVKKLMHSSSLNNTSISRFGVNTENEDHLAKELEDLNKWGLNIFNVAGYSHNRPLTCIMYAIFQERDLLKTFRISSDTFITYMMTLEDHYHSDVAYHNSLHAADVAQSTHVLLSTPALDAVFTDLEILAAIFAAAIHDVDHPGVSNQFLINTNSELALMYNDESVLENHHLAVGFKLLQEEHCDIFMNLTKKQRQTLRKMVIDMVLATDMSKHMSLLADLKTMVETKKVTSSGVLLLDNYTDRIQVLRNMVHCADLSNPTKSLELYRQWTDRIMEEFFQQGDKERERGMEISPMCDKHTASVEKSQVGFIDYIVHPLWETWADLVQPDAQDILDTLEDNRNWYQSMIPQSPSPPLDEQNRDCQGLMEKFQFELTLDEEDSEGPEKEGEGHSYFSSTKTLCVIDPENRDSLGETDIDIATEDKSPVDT

Going from `CC(C)[C@H](CO)Nc1nc(N2CCC(c3c[nH]cn3)CC2)nc2c1[S+]([O-])CC2` (stereo partly shown) [Example 13] to `CC(C)[C@H](CO)Nc1nc(N2CCC(c3cccc(O)c3)CC2)nc2c1[S+]([O-])CC2` (stereo partly shown) [Example 17], the inhibition at 1 µM rises from 71% to 93%.

Compared with `CC(C)[C@H](CO)Nc1nc(N2CCC(c3ccc(C#N)cc3)CC2)nc2c1[S+]([O-])CC2` (stereo partly shown) [Example 20], `CC(C)[C@H](CO)Nc1nc(N2CCC(c3cccc(C#N)c3)CC2)nc2c1[S+]([O-])CC2` (stereo partly shown) [Example 154] is lower in inhibition at 1 µM: 94% for the first, 92% for the second.

`[O-][S+]1CCc2nc(N3CCC(c4ccc5ccccc5c4)CC3)nc(NC3CCOCC3)c21` (stereo not shown) [Example 127] and `[O-][S+]1CCc2nc(N3CCC(c4cc5ccccc5o4)CC3)nc(NC3CCOCC3)c21` (stereo not shown) [Example 126] are the same in inhibition at 1 µM: 96% for the first, 96% for the second.

Going from `[O-][S+]1CCc2nc(N3CCC(c4ccc(Br)cc4)CC3)nc(NC3CCOCC3)c21` (stereo not shown) [Example 93, {2-[4-(4-Bromophenyl)-Piperidin-1-Yl]-5-Oxo-6,7-Dihydro-5H-5λ^4-Thieno[3,2-d]Pyrimidine-4-Yl}-(Tetrahydropyran-4-Yl)-Amine] to `[O-][S+]1CCc2nc(N3CCC(c4ccc(F)cc4)CC3)nc(NC3CCOCC3)c21` (stereo not shown) [Example 10], the inhibition at 1 µM falls from 94% to 93%.

Compared with `[O-][S+]1CCc2nc(N3CCC(c4noc5ccccc45)CC3)nc(NC3(CO)CC3)c21` (stereo not shown) [Example 31], `[O-][S+]1CCc2nc(N3CCC(c4noc5cc(F)ccc45)CC3)nc(NC3(CO)CC3)c21` (stereo not shown) [Example 105] is lower in inhibition at 1 µM: 97% for the first, 95% for the second.

`CCC[C@H](CO)Nc1nc(N2CCC(c3ccc(Cl)cc3)CC2)nc2c1[S+]([O-])CC2` (stereo partly drawn) [Example 3, (R)-2-{2-[4-(4-chlorophenyl)-piperidin-1-yl]-5-oxo-6,7-dihydro-5H-5λ^4-thieno[3,2-d]pyrimidin-4-ylamino}-pentan-1-ol] and `[O-][S+]1CCc2nc(N3CCC(c4ccc(Br)cc4)CC3)nc(NC3(CO)CC3)c21` (stereo not shown) [Example 92, (1-{2-[4-(4-Bromophenyl)-Piperidin-1-Yl]-5-Oxo-6,7-Dihydro-5H-5λ^4-Thieno[3,2-d]Pyrimidin-4-Ylamino}-Cyclopropyl)-Methanol] are the same in inhibition at 1 µM: 94% for the first, 94% for the second.

Compared with `[O-][S+]1CCc2nc(N3CCC(c4cccc(Cl)c4)CC3)nc(Nc3cccc(F)c3)c21` (stereo not shown) [Example 84], `[O-][S+]1CCc2nc(N3CCC(c4cccc(O)c4)CC3)nc(Nc3cccc(F)c3)c21` (stereo not shown) [Example 76] is higher in inhibition at 1 µM: 95% for the first, 97% for the second.

Going from `[O-][S+]1CCc2nc(N3CCC(c4cc(Cl)cc(Cl)c4)CC3)nc(NC3(CO)CC3)c21` (stereo not shown) [Example 91, (1-{2-[4-(3,5-Dichlorophenyl)-Piperidin-1-Yl]-5-Oxo-6,7-Dihydro-5H-5λ^4-Thieno[3,2-d]Pyrimidin-4-Ylamino}-Cyclopropyl)-Methanol] to `[O-][S+]1CCc2nc(N3CCC(c4cc(Cl)cc(Cl)c4)CC3)nc(NC3CCOCC3)c21` (stereo not shown) [Example 97, {2-[4-(3,5-Dichlorophenyl)-Piperidin-1-Yl]-5-Oxo-6,7-Dihydro-5H-5λ^4-Thieno[3,2-d]Pyrimidin-4-Yl}-(Tetrahydropyran-4-Yl)-Amine], the inhibition at 1 µM falls from 94% to 93%.

First: CC(C)[C@H](CO)Nc1nc(N2CCC(c3noc4ccccc34)CC2)nc2c1[S+]([O-])CC2 (stereo partly drawn) [Example 16, (R)-2-[2-(4-Benzo[d]Isoxazol-3-Yl-Piperidin-1-Yl)-5-Oxo-6,7-Dihydro-5H-5λ^4-Thieno[3,2-d]Pyrimidin-4-Ylamino]-3-Methylbutan-1-Ol]
Second: CC(C)[C@H](CO)Nc1nc(N2CCC3(CC2)CN(S(C)(=O)=O)c2ccccc23)nc2c1[S+]([O-])CC2 (stereo partly shown) [Example 15]
The inhibition at 1 µM of the first is higher: 96% for the first, 67% for the second.

Compared with `[O-][S+]1CCc2nc(N3CCC(c4cccc(F)c4)CC3)nc(NC3CCOCC3)c21` (stereo not shown) [Example 86], `COC(=O)c1cccc(C2CCN(c3nc4c(c(NC5CCOCC5)n3)[S+]([O-])CC4)CC2)c1` (stereo not shown) [Example 120] is higher in inhibition at 1 µM: 94% for the first, 95% for the second.

Compared with `O=C1Nc2ccccc2C2(CCN(c3nc4c(c(NC5(CO)CC5)n3)[S+]([O-])CC4)CC2)O1` (stereo not shown) [Example 36], `[O-][S+]1CCc2nc(N3CCC4(CC3)OCc3ccccc34)nc(NC3(CO)CC3)c21` (stereo not shown) [Example 109] is lower in inhibition at 1 µM: 92% for the first, 75% for the second.

Compared with `[O-][S+]1CCc2nc(N3CCC(c4nc5cc(Cl)ccc5s4)CC3)nc(Nc3cccc(F)c3)c21` (stereo not shown) [Example 134], `[O-][S+]1CCc2nc(N3CCC(c4cc5ccccc5o4)CC3)nc(Nc3cccc(F)c3)c21` (stereo not shown) [Example 141] is higher in inhibition at 1 µM: 95% for the first, 97% for the second.

First: N#Cc1ccc(C2CCN(c3nc4c(c(NC5CCOCC5)n3)[S+]([O-])CC4)CC2)cc1 (stereo not shown) [Example 64]
Second: [O-][S+]1CCc2nc(N3CCC(c4ccc(C(F)(F)F)cc4)CC3)nc(NC3CCOCC3)c21 (stereo not shown) [Example 96, {5-Oxo-2-[4-(4-Trifluoromethylphenyl)-Piperidin-1-Yl]-6,7-Dihydro-5H-5λ^4-Thieno[3,2-d]Pyrimidin-4-Yl}-(Tetrahydropyran-4-Yl)-Amine]
The inhibition at 1 µM of the first is higher: 96% for the first, 94% for the second.

Going from `O=S1(=O)CCc2nc(N3CCC(c4ccc(Cl)cc4)CC3)nc(NC3CCOCC3)c21` [Example 334, {2-[4-(4-chlorophenyl)-piperidin-1-yl]-5.5-dioxo-6,7-dihydro-5H-5λ^6-thieno[3,2-d]pyrimidin-4-yl}-(tetrahydropyran-4-yl)-amine] to `[O-][S+]1CCc2nc(N3CCC(c4nc(-c5ccncc5)no4)CC3)nc(NC3CCOCC3)c21` (stereo not shown) [Example 132], the inhibition at 1 µM rises from 65% to 95%.

Compared with `CN1C[C@@H](Nc2nc(N3CCC4(CC3)OC(=O)Nc3ccccc34)nc3c2[S+]([O-])CC3)CCC1=O` (stereo partly shown) [Example 50], `O=C1Nc2ccccc2C2(CCN(c3nc4c(c(Nc5cccc(F)c5)n3)[S+]([O-])CC4)CC2)O1` (stereo not shown) [Example 80] is lower in inhibition at 1 µM: 95% for the first, 94% for the second.

Going from `COc1ccc(C2CCN(c3nc4c(c(NC5(CO)CC5)n3)[S+]([O-])CC4)CC2)cc1` (stereo not shown) [Example 101] to `COC(=O)c1cccc(C2CCN(c3nc4c(c(NC5(CO)CC5)n3)[S+]([O-])CC4)CC2)c1` (stereo not shown) [Example 104], the inhibition at 1 µM rises from 94% to 95%.

Compared with `O=C1Nc2ccccc2C2(CCN(c3nc4c(c(Nc5cccc(F)c5)n3)[S+]([O-])CC4)CC2)N1` (stereo not shown) [Example 81], `[O-][S+]1CCc2nc(N3CCC(c4c[nH]c5ccccc45)CC3)nc(Nc3cccc(F)c3)c21` (stereo not shown) [Example 71] is higher in inhibition at 1 µM: 83% for the first, 96% for the second.

Same assay, conditions: test substance 1 μM; one-hour incubation with [H3]-cAMP at 30° C.

First: [O-][S+]1CCc2nc(N3CCC(COCc4ccccc4)(c4ccc(Cl)cc4)CC3)nc(NC3(CO)CC3)c21 (stereo not shown) [Example 309]
Second: N#CC1(c2ccc(F)cc2)CCN(c2nc3c(c(NC4(CO)CC4)n2)[S+]([O-])CC3)CC1 (stereo not shown) [Example 295]
The inhibition at 1 µM of the first is lower: 92% for the first, 93% for the second.

First: CN1C[C@@H](Nc2nc(N3CCC(C(=O)c4ccc(F)cc4)(c4ccc(F)cc4)CC3)nc3c2[S+]([O-])CC3)CCC1=O (stereo partly shown) [Example 203, 5-{2-[4-(4-fluorobenzoyl)-4-(4-fluorophenyl)-piperidin-1-yl]-5-oxo-6,7-dihydro-5H-5λ^4-thieno[3,2-d]pyrimidin-4-ylamino}-1-methylpiperidin-2-one]
Second: CC(=O)N(C)CC1(c2ccccc2)CCN(c2nc3c(c(N[C@H]4CCC(=O)N(C)C4)n2)[S+]([O-])CC3)CC1 (stereo partly shown) [Example 274, N-methyl-N-{1-[4-(1-methyl-6-oxo-piperidin-3-ylamino)-5-oxo-6,7-dihydro-5H-5λ^4-thieno[3,2-d]pyrimidin-2-yl]-4-phenylpiperidin-4-ylmethyl}-acetamide]
The inhibition at 1 µM of the first is higher: 96% for the first, 94% for the second.

Compared with `CN1CCc2ccc(OC3CCN(c4nc5c(c(NC6CCOCC6)n4)[S+]([O-])CC5)CC3)cc2CC1` (stereo not shown) [Example 186, (2-[4-(3-Methyl-2,3,4,5-Tetrahydro-1H-Benzo[d]Azepin-7-Yloxy)-Piperidin-1-Yl]-5-Oxo-6,7-Dihydro-5H-5λ^4-Thieno[3,2-d]Pyrimidin-4-Yl)-(Tetrahydropyran-4-Yl)-Amine], `CC(C)N1CCc2ccc(OC3CCN(c4nc5c(c(NC6CCOCC6)n4)[S+]([O-])CC5)CC3)cc2CC1` (stereo not shown) [Example 235] is lower in inhibition at 1 µM: 96% for the first, 87% for the second.

First: O=C(c1ccc(C2CCN(c3nc4c(c(NC5CCOCC5)n3)[S+]([O-])CC4)CC2)cc1)N1CCOCC1 (stereo not shown) [Example 227]
Second: O=C(c1cccc(C2CCN(c3nc4c(c(NC5CCOCC5)n3)[S+]([O-])CC4)CC2)c1)N1CCOCC1 (stereo not shown) [Example 247]
The inhibition at 1 µM of the first is lower: 83% for the first, 90% for the second.

First: [O-][S+]1CCc2nc(N3CCC(Oc4ccncc4)CC3)nc(NC3CCOCC3)c21 (stereo not shown) [Example 268]
Second: N#Cc1ccc(OC2CCN(c3nc4c(c(NC5CCOCC5)n3)[S+]([O-])CC4)CC2)cc1 (stereo not shown) [Example 321]
The inhibition at 1 µM of the first is lower: 80% for the first, 93% for the second.

Going from `O=C(c1cccc(C2CCN(c3nc4c(c(NC5CCOCC5)n3)[S+]([O-])CC4)CC2)c1)N(C1CCOCC1)C1CC1` (stereo not shown) [Example 257] to `O=C(c1ccc(OC2CCN(c3nc4c(c(NC5CCOCC5)n3)[S+]([O-])CC4)CC2)cc1)N(C1CCOCC1)C1CC1` (stereo not shown) [Example 238], the inhibition at 1 µM rises from 94% to 95%.

Going from `Cc1nn(C)c(C)c1CNC(=O)c1ccc(OC2CCN(c3nc4c(c(NC5CCOCC5)n3)[S+]([O-])CC4)CC2)cc1` (stereo not shown) [Example 243] to `CN1CCC(N(C)C(=O)c2cccc(C3CCN(c4nc5c(c(NC6CCOCC6)n4)[S+]([O-])CC5)CC3)c2)CC1` (stereo not shown) [Example 248], the inhibition at 1 µM falls from 94% to 88%.

First: COC1(c2ccc(Cl)cc2)CCN(c2nc3c(c(N[C@@H](CO)C(C)C)n2)[S+]([O-])CC3)CC1 (stereo partly shown) [Example 315]
Second: COCC1(c2ccc(Cl)cc2)CCN(c2nc3c(c(NC4CCOCC4)n2)[S+]([O-])CC3)CC1 (stereo not shown) [Example 302]
The inhibition at 1 µM of the first is lower: 89% for the first, 91% for the second.

First: COCC(=O)N(C)CC1(c2ccccc2)CCN(c2nc3c(c(NC4CCOCC4)n2)[S+]([O-])CC3)CC1 (stereo not shown) [Example 323, 2-methoxy-N-methyl-N-{1-[5-oxo-4-(tetrahydropyran-4-ylamino)-6,7-dihydro-5H-5λ^4-thieno[3,2-d]pyrimidin-2-yl]-4-phenylpiperidin-4-ylmethyl}-acetamide]
Second: [O-][S+]1CCc2nc(N3CCC(c4nc5c(o4)CCCC5)CC3)nc(NC3(CO)CC3)c21 (stereo not shown) [Example 328]
The inhibition at 1 µM of the first is higher: 94% for the first, 93% for the second.

— patent publication US8754073B2, “Substituted piperazino-dihydrothienopyrimidines” (Boehringer Ingelheim International GmbH, priority 2007, dated 2014)
